Consider 24 compounds from US20190119282A1, “IMIDAZOPYRIDAZINES USEFUL AS INHIBITORS OF THE PAR-2 SIGNALING PATHWAY” (Vertex Pharmaceuticals Incorporated, priority 2013, published 2019).

The IC50 is the point on the concentration scale where inhibition reaches its midpoint.

Assay [1] concerns the target T1, PAR2 (HT-29 cells, SLIGKV activation) (Homo sapiens, UniProt P55085).
T1 construct: host or cells: HT-29 cells
T1 sequence (P55085 26-397): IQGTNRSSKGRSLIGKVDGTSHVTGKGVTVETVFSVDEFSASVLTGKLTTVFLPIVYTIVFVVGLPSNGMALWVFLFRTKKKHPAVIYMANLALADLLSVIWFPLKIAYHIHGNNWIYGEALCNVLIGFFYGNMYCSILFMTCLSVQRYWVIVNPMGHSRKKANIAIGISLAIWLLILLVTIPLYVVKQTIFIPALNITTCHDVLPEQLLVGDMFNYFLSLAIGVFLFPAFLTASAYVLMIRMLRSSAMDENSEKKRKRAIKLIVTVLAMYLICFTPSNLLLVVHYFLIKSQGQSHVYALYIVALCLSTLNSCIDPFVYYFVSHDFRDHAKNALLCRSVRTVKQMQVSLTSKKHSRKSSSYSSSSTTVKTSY
Description: Ca FLIPR TETRA assay, ANTAGONIST mode, stimulation with 8 μM SLIGKV. The note with it: HT-29 cells, antagonist mode, stimulation with 8 μM SLIGKV. It is filed as cell-based. A digest of the protocol:
(§1)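 Intracellular calcium is measured by fluorescence in HT-29 cells loaded with calcium 5 reagent. Compounds sit on the cells 30 min at room temperature before challenge with trypsin (3.1 U/mL) or SLIGKV (8 μM) for PAR2, or with thrombin (1 U/mL) or UTP (0.6 μM) as counter-stimuli.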

The subject of assay [2] is UTP-stimulated Ca2+ response in HT-29 cells. Nature of the assay: Ca FLIPR TETRA assay, ANTAGONIST mode, stimulation with 0.6 μM UTP. It is filed as cell-based, human. Particulars: Homo sapiens; HT-29 cells, antagonist mode, stimulation with 0.6 μM UTP. In a few lines: as §1
Assay [3] addresses T2, PAR2 (HT-29 cells, trypsin activation) (Homo sapiens, UniProt P55085).
T2 construct: host or cells: HT-29 cells
T2 sequence (P55085 26-397): T1 sequence (P55085 26-397)
Description: Ca FLIPR TETRA assay, ANTAGONIST mode, stimulation with 3.1 U/mL trypsin. Particulars: HT-29 cells, antagonist mode, stimulation with 3.1 U/mL trypsin. It is filed as cell-based. In a few lines: as §1

The test system of assay [4] is Thrombin-stimulated Ca2+ response in HT-29 cells. Description: Ca FLIPR TETRA assay, ANTAGONIST mode, stimulation with 1 U/mL Thrombin. It is filed as cell-based, human. The note with it: Homo sapiens; HT-29 cells, antagonist mode, stimulation with 1 U/mL Thrombin. In a few lines: as §1

For the compound `CC(C)(C)c1cc(-c2ccc(Cl)cc2)nn2cc(C(=O)N3CCN(C(=O)c4ccn[nH]4)CC3(C)C)nc12` [Compound I-435], the IC50 in assay [1] is 0.8 nM; in assay [2], greater than 1000 nM; in assay [3] it was 0.7 nM; in assay [4] it was greater than 1000 nM.
Turning to `Cc1cc(C(=O)N2CCN(C(=O)c3cn4nc(C5CCC(F)(F)CC5)cc(C(C)(C)C)c4n3)C(C)(C)C2)[nH]n1` [Compound I-437], the IC50 in assay [1] was 0.7 nM; in assay [2], greater than 1000 nM; in assay [3], 2 nM; in assay [4] it was greater than 1000 nM.
Consider `CC(C)(C)c1cc(-c2ccc(F)c(Cl)c2)nn2cc(C(=O)N3CCNC(=O)C3(C)C)nc12` [Compound I-438], for which the IC50 in assay [1] is 1.5 nM; in assay [2], greater than 1000 nM; in assay [3], 2.6 nM; in assay [4], greater than 1000 nM.
As to `Cc1cc(F)ccc1-c1cc(C(C)(C)C)c2nc(C(=O)N3CCNC(=O)C3(C)C)cn2n1` [Compound I-439], the IC50 was 81 nM in assay [1], greater than 1000 nM in assay [2], 125 nM in assay [3] and greater than 1000 nM in assay [4].
In the case of `Cc1cc(-c2cc(C(C)C)c3nc(C(=O)N4CCN(C)C(=O)C4(C)C)cn3n2)ccc1F` [Compound I-440], the IC50 in assay [1] is 8.1 nM; in assay [2], greater than 1000 nM; in assay [3] it was 14 nM; in assay [4], greater than 1000 nM.
For `Cc1ncc(C(=O)N2CCN(C(=O)c3cn4nc(-c5ccc(Cl)cc5)cc(C(C)(C)C)c4n3)C(C)(C)C2)[nH]1` [Compound I-441], the IC50 in assay [1] was 0.5 nM; in assay [2], greater than 1000 nM; in assay [3] it was 0.6 nM; in assay [4], greater than 1000 nM.
For `Cc1cc(-c2cc(C(C)C)c3nc(C(=O)N4CN(Cc5ccccc5)C(=O)C4(C)C)cn3n2)ccc1F` [Compound I-442, 3-benzyl-1-[6-(4-fluoro-3-methyl-phenyl)-8-isopropyl-imidazo[1,2-b]pyridazine-2-carbonyl]-5,5-dimethyl-imidazolidin-4-one], the IC50 is 109 nM in assay [1], greater than 1000 nM in assay [2], 150 nM in assay [3] and greater than 1000 nM in assay [4].
Regarding `Cc1nnc(C(=O)N2CCN(C(=O)c3cn4nc(-c5ccc(Cl)cc5)cc(C(C)(C)C)c4n3)C(C)(C)C2)o1` [Compound I-443], the IC50 was 0.8 nM in assay [1], greater than 1000 nM in assay [2], 1.2 nM in assay [3] and greater than 1000 nM in assay [4].
As to `CC(C)(C)c1cc(-c2ccc(Cl)cc2)nn2cc(C(=O)N3CCN(C(=O)c4ccccn4)CC3(C)C)nc12` [Compound I-444], the IC50 in assay [1] was 0.8 nM; in assay [2], greater than 1000 nM; in assay [3] it was 1.3 nM; in assay [4], greater than 1000 nM.
Regarding `CC(C)(C)c1cc(-c2ccc(Cl)cc2)nn2cc(C(=O)N3CCN(C(=O)c4ncccn4)CC3(C)C)nc12` [Compound I-445], the IC50 in assay [1] is 0.4 nM; in assay [2] it was greater than 1000 nM; in assay [3] it was 0.9 nM; in assay [4] it was greater than 1000 nM.
Turning to `CC(C)(C)C1CC(c2ccc(F)cc2)=Nn2cc(C(=O)N3CCNC(=O)C3(C)C)nc21` (stereo not drawn) [Compound I-446], the IC50 in assay [1] is 56 nM; in assay [2], greater than 1000 nM; in assay [3], 104 nM; in assay [4], greater than 1000 nM.
Turning to `Cc1cc(C2=Nn3cc(C(=O)N4CCNC(=O)C4(C)C)nc3C(C(C)C)C2)ccc1F` (stereo not drawn) [Compound I-447], the IC50 in assay [1] was 170 nM; in assay [2], greater than 1000 nM; in assay [3], 180 nM; in assay [4], greater than 1000 nM.
On to `Cc1cc(-c2cc(C(C)C)c3nc(C(=O)N4CCN(CC(C)(C)O)C(=O)C4(C)C)cn3n2)ccc1F` [Compound I-449], for which the IC50 in assay [1] is 25.5 nM; in assay [2], greater than 1000 nM; in assay [3] it was 46.5 nM; in assay [4] it was greater than 1000 nM.
`Cc1cc(C(=O)N2CCN(C(=O)c3cn4nc(-c5ccc(Cl)c(F)c5)cc(C(C)(C)C)c4n3)C(C)(C)C2)[nH]n1` [Compound I-450]: the IC50 in assay [1] was 0.1 nM; in assay [2], greater than 1000 nM; in assay [3] it was 0.3 nM; in assay [4] it was greater than 1000 nM.
Consider `Cc1nc(C(=O)N2CCN(C(=O)c3cn4nc(-c5ccc(Cl)c(F)c5)cc(C(C)(C)C)c4n3)C(C)(C)C2)n[nH]1` [Compound I-451], for which the IC50 in assay [1] is 0.1 nM; in assay [2], 710 nM; in assay [3] it was 0.3 nM; in assay [4] it was greater than 1000 nM.
On to `Cc1ncc(C(=O)N2CCN(C(=O)c3cn4nc(-c5ccc(Cl)c(F)c5)cc(C(C)(C)C)c4n3)C(C)(C)C2)[nH]1` [Compound I-453], for which the IC50 in assay [1] is 0.7 nM; in assay [2] it was greater than 1000 nM; in assay [3], 1.2 nM; in assay [4], greater than 1000 nM.
On to `CC(C)(C)c1cc(-c2ccc(Cl)c(F)c2)nn2cc(C(=O)N3CCN(C(=O)c4ccn[nH]4)CC3(C)C)nc12` [Compound I-454], for which the IC50 in assay [1] is 0.4 nM; in assay [2] it was greater than 1000 nM; in assay [3] it was 0.7 nM; in assay [4], greater than 1000 nM.
For the compound `CC(C)(C)c1cc(-c2ccc(Cl)c(F)c2)nn2cc(C(=O)N3CCN(C(=O)c4ccccn4)CC3(C)C)nc12` [Compound I-455], the half-maximal inhibitory concentration (IC50) in assay [1] is 0.6 nM; in assay [2], greater than 1000 nM; in assay [3], 0.9 nM; in assay [4], greater than 1000 nM.
For `CC(C)(C)c1cc(-c2ccc(Cl)c(F)c2)nn2cc(C(=O)N3CCN(C(=O)c4ncccn4)CC3(C)C)nc12` [Compound I-456], the IC50 is 0.5 nM in assay [1], greater than 1000 nM in assay [2], 0.7 nM in assay [3] and greater than 1000 nM in assay [4].
With `Cc1nnc(C(=O)N2CCN(C(=O)c3cn4nc(-c5ccc(Cl)c(F)c5)cc(C(C)(C)C)c4n3)C(C)(C)C2)o1` [Compound I-457], the IC50 is 0.6 nM in assay [1], greater than 1000 nM in assay [2], 0.8 nM in assay [3] and greater than 1000 nM in assay [4].
As for `CC(C)(C)c1cc(-c2ccc(F)c(Cl)c2)nn2cc(C(=O)N3CCN(C(=O)c4ccccn4)CC3(C)C)nc12` [Compound I-458], the IC50 in assay [1] was 1.3 nM; in assay [2] it was greater than 1000 nM; in assay [3], 2.1 nM; in assay [4] it was greater than 1000 nM.
For `CC(C)(C)c1cc(-c2ccc(F)c(Cl)c2)nn2cc(C(=O)N3CCN(C(=O)c4ccn[nH]4)CC3(C)C)nc12` [Compound I-459], the IC50 was 1 nM in assay [1], greater than 1000 nM in assay [2], 1.5 nM in assay [3] and greater than 1000 nM in assay [4].
As to `CC(C)(C)c1cc(-c2ccc(F)c(Cl)c2)nn2cc(C(=O)N3CCN(C(=O)[C@H]4C[C@@](C)(O)C4)CC3(C)C)nc12` [Compound I-460], the IC50 in assay [1] is 0.5 nM; in assay [2], greater than 1000 nM; in assay [3] it was 0.7 nM; in assay [4] it was greater than 1000 nM.
Take `Cc1nnc(C(=O)N2CCN(C(=O)c3cn4nc(C5CCC(F)(F)CC5)cc(C(C)(C)C)c4n3)C(C)(C)C2)o1` [Compound I-461]: the IC50 is 14.8 nM in assay [1], greater than 1000 nM in assay [2], 39.8 nM in assay [3] and greater than 1000 nM in assay [4].
